These compounds were tested against T1, human P2Y12 receptor (Homo sapiens, UniProt Q9H244) (assay: P2Y12 receptor binding assay). Settings: CHO cells with recombinant expression of the human P2Y12 receptor; tritium-labeled 2-methyl-S-ADP; RT, 2 hours.
T1 construct: expressed in transfected cells; host or cells: Chinese Hamster Ovary (CHO) cells
T1 sequence (Q9H244 whole entry): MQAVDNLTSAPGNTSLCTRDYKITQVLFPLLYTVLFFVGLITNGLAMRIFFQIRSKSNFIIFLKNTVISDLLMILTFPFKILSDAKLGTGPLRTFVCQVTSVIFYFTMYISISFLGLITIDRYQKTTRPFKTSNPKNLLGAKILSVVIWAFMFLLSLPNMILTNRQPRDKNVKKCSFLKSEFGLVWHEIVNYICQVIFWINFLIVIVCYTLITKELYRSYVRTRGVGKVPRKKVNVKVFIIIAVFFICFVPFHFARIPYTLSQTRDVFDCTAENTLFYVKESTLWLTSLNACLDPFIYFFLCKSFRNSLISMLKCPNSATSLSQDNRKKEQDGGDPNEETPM

Compared with `CCCCOC(=O)N1CCN(C(=O)[C@H](Cc2ccccc2)NC(=O)c2cc(N3C[C@@H]4[C@H](C3)[C@@H]4C(=O)O)nc(-c3ccccc3)n2)CC1` [Example 45, (1α,5α,6β)-3-{6-[(S)-1-Benzyl-2-(4-butoxycarbonyl-piperazin-1-yl)-2-oxo-ethylcarbamoyl]-2-phenyl-pyrimidin-4-yl}-3-aza-bicyclo[3.1.0]hexane-6-carboxylic acid], `CCCCOC(=O)N1CCN(C(=O)[C@H](Cc2ccccc2)NC(=O)c2cc(N3CC4C(C3)C4C(=O)O)nc(-c3ccccc3)n2)CC1` (stereo partly drawn) [Example 46, (1α,5α,6α)-3-{6-[(S)-1-Benzyl-2-(4-butoxycarbonyl-piperazin-1-yl)-2-oxo-ethylcarbamoyl]-2-phenyl-pyrimidin-4-yl}-3-aza-bicyclo[3.1.0]hexane-6-carboxylic acid] is 3.8-fold higher in IC50: 255 nM for the first, 961 nM for the second.

Compared with `CCCCOC(=O)N1CCN(C(=O)[C@@H](NC(=O)c2cc(N3C[C@@H]4[C@H](C3)[C@@H]4C(=O)O)nc(-c3ccccc3F)n2)C(C)C)CC1` [Example 47, (1α,5α,6β)-3-[6-[(S)-1-(4-Butoxycarbonyl-piperazine-1-carbonyl)-2-methyl-propylcarbamoyl]-2-(2-fluoro-phenyl)-pyrimidin-4-yl]-3-aza-bicyclo[3.1.0]hexane-6-carboxylic acid], `CCCCOC(=O)N1CCN(C(=O)[C@H](CC#N)NC(=O)c2cc(N3C[C@@H]4[C@H](C3)[C@@H]4C(=O)O)nc(-c3ccccc3)n2)CC1` [Example 48, (1α,5α,6β)-3-{6-[(S)-1-(4-Butoxycarbonyl-piperazine-1-carbonyl)-2-cyano-ethylcarbamoyl]-2-phenyl-pyrimidin-4-yl}-3-aza-bicyclo[3.1.0]hexane-6-carboxylic acid] is 6.2-fold higher in IC50: 12 nM for the first, 74 nM for the second.

`CCCCOC(=O)N1CCN(C(=O)[C@H](CCc2nnn[nH]2)NC(=O)c2cc(N3C[C@@H]4[C@H](C3)[C@@H]4C(=O)O)nc(-c3ccccc3)n2)CC1` [Example 49, (1α,5α,6β)-3-{6-[(S)-1-(4-Butoxycarbonyl-piperazine-1-carbonyl)-3-(1H-tetrazol-5-yl)-propylcarbamoyl]-2-phenyl-pyrimidin-4-yl}-3-aza-bicyclo[3.1.0]hexane-6-carboxylic acid] and `CCCCOC(=O)N1CCN(C(=O)[C@H](CP(=O)(O)O)NC(=O)c2cc(N3C[C@@H]4[C@H](C3)[C@H]4C(=O)OCC)nc(-c3ccccc3)n2)CC1` [Example 51, (1α,5α,6α)-3-{6-[(R)-2-(4-Butoxycarbonyl-piperazin-1-yl)-2-oxo-1-phosphonomethyl-ethylcarbamoyl]-2-phenyl-pyrimidin-4-yl}-3-aza-bicyclo[3.1.0]hexane-6-carboxylic acid ethyl ester] cannot be ordered by IC50: less than 3.2 nM for the first, 2.5 nM for the second.

Compared with `CCCCOC(=O)N1CCN(C(=O)[C@H](CP(=O)(OCC)OCC)NC(=O)c2cc(N3C[C@@H]4[C@H](C3)[C@H]4C(=O)OCC)nc(-c3ccccc3)n2)CC1` [Example 50, (1α,5α,6α)-3-{6-[(R)-2-(4-Butoxycarbonyl-piperazin-1-yl)-1-(diethoxy-phosphorylmethyl)-2-oxo-ethylcarbamoyl]-2-phenyl-pyrimidin-4-yl}-3-aza-bicyclo[3.1.0]hexane-6-carboxylic acid ethyl ester], `CCCCOC(=O)N1CCN(C(=O)[C@H](CP(=O)(OCOC(C)=O)OCOC(C)=O)NC(=O)c2cc(N3C[C@@H]4[C@H](C3)[C@H]4C(=O)OCC)nc(-c3ccccc3)n2)CC1` [Example 52, (1α,5α,6α)-3-{6-[(R)-1-(Bis-acetoxymethoxy-phosphorylmethyl)-2-(4-butoxycarbonyl-piperazin-1-yl)-2-oxo-ethylcarbamoyl]-2-phenyl-pyrimidin-4-yl}-3-aza-bicyclo[3.1.0]hexane-6-carboxylic acid ethyl ester] is 96-fold lower in IC50: 383 nM for the first, 4 nM for the second. The second is the more potent here.

Going from `CCCCOC(=O)N1CCN(C(=O)[C@H](CP(=O)(N[C@@H](C)C(=O)OCC)N[C@@H](C)C(=O)OCC)NC(=O)c2cc(N3C[C@@H]4[C@H](C3)[C@H]4C(=O)OCC)nc(-c3ccccc3)n2)CC1` [Example 53, N,N′-Bis-((S)-1-Ethoxycarbonylethyl)-(R)-2-[(4-[(1α,5α,6α)-6-ethoxycarbonyl-3-aza-bicyclo[3.1.0]hex-3-yl]-2-phenyl-pyrimidin-6-carbonyl)-amino]-3-oxo-3-(4-butoxy-carbonyl-piperazin-1-yl)-propyl-phosphonic acid diamide] to `CCCCOC(=O)N1CCN(C(=O)[C@H](CP(=O)(OCOC(=O)OCC)OCOC(=O)OCC)NC(=O)c2cc(N3C[C@@H]4[C@H](C3)[C@H]4C(=O)OCC)nc(-c3ccccc3)n2)CC1` [Example 54, (1α,5α,6α)-3-{6-[(R)-1-(Bis-ethoxycarbonyloxymethoxy-phosphorylmethyl)-2-(4-butoxycarbonyl-piperazin-1-yl)-2-oxo-ethylcarbamoyl]-2-phenyl-pyrimidin-4-yl}-3-aza-bicyclo[3.1.0]hexane-6-carboxylic acid ethyl ester], the IC50 falls from 110 nM to 15 nM (7.3-fold).

— patent publication US8288385B2, “6-(3-aza-bicyclo[3.1.0]hex-3-yl)-2-phenyl-pyrimidines” (Actelion Pharmaceuticals Ltd., priority 2009, dated 2012)
